ChEMBL document CHEMBL1121921, “Synthesis and evaluation of the male antifertility properties of a series of N-unsubstituted sulfamates” (1981)

Experiments:
Assay type in all cases: functional
Rattus norvegicus [1] = assay: Compound was evaluated for male antifertility activity by oral administration in propylene glycol to male Sprague-Dawley rats for 14 consecutive days at dose of 0.36 mmol/kg
Rattus norvegicus [2] = assay: Compound was evaluated for male antifertility activity by oral administration in propylene glycol to male Sprague-Dawley rats for 14 consecutive days at dose of 0.18 mmol/kg
Rattus norvegicus [3] = assay: Compound was evaluated for male antifertility activity by oral administration in propylene glycol to male Sprague-Dawley rats for 14 consecutive days at dose of 0.68 mmol/kg
Rattus norvegicus [4] = assay: Compound was evaluated for male antifertility activity by oral administration in propylene glycol to male Sprague-Dawley rats for 14 consecutive days at dose of 0.09 mmol/kg
Rattus norvegicus [5] = assay: Compound was evaluated for male antifertility activity by oral administration in propylene glycol to male Sprague-Dawley rats for 14 consecutive days at dose of 0.05 mmol/kg
Rattus norvegicus [6] = assay: Compound was evaluated for male antifertility activity by oral administration in propylene glycol to male Sprague-Dawley rats for 14 consecutive days at dose of 0.07 mmol/kg
Rattus norvegicus [7] = assay: Compound was evaluated for male antifertility activity by oral administration in propylene glycol to male Sprague-Dawley rats for 14 consecutive days at dose of 0.40 mmol/kg
Rattus norvegicus [8] = assay: Compound was evaluated for male antifertility activity by oral administration in propylene glycol to male Sprague-Dawley rats for 14 consecutive days at dose of 0.04 mmol/kg
Rattus norvegicus [9] = assay: Compound was evaluated for male antifertility activity by oral administration in propylene glycol to male Sprague-Dawley rats for 14 consecutive days at dose of 0.64 mmol/kg
Rattus norvegicus [10] = assay: Compound was evaluated for male antifertility activity by oral administration in propylene glycol to male Sprague-Dawley rats for 14 consecutive days at dose of 0.43 mmol/kg
Rattus norvegicus [11] = assay: Compound was evaluated for male antifertility activity by oral administration in propylene glycol to male Sprague-Dawley rats for 14 consecutive days at dose of 0.34 mmol/kg
Rattus norvegicus [12] = assay: Compound was evaluated for male antifertility activity by oral administration in propylene glycol to male Sprague-Dawley rats for 14 consecutive days at dose of 0.30 mmol/kg

## NS(=O)(=O)OCCOS(N)(=O)=O
Rattus norvegicus [1]
  No. of implants/pregnancy: 9.8
  No. of males cohabited: 8
  No. of males fertile: 1
  No. of males mated: 7
  Resorbing implants: 98.2%
Rattus norvegicus [2]
  No. of implants/pregnancy: 10.8
  No. of males cohabited: 10
  No. of males fertile: 8
  No. of males mated: 9
  Resorbing implants: 40%
Rattus norvegicus [3]
  No. of males cohabited: 5
  No. of males fertile: 0
  No. of males mated: 5

## NS(=O)(=O)OC1CCCCC1OS(N)(=O)=O (stereo not drawn)
Rattus norvegicus [1]
  No. of implants/pregnancy: 14
  No. of males cohabited: 5
  No. of males fertile: 5
  No. of males mated: 5
  Resorbing implants: 4.4%

## CS(=O)(=O)OCCOS(C)(=O)=O [ETHANE DIMETHANE SULFONATE]
Rattus norvegicus [4]
  No. of males cohabited: 5
  No. of males fertile: 0
  No. of males mated: 4
Rattus norvegicus [5]
  No. of implants/pregnancy: 9.9
  No. of males cohabited: 7
  No. of males fertile: 6
  No. of males mated: 7
  Resorbing implants: 35.2%
Rattus norvegicus [6]
  No. of implants/pregnancy: 12.3
  No. of males cohabited: 5
  No. of males fertile: 3
  No. of males mated: 4
  Resorbing implants: 30.3%

## CC(OS(N)(=O)=O)C(C)OS(N)(=O)=O (stereo not drawn)
Rattus norvegicus [7]
  No. of implants/pregnancy: 15
  No. of males cohabited: 4
  No. of males fertile: 3
  No. of males mated: 3
  Resorbing implants: 0%

## NS(=O)(=O)OCCCCOS(N)(=O)=O
Rattus norvegicus [7]
  No. of males cohabited: 5
  No. of males fertile: 0
  No. of males mated: 5
Rattus norvegicus [8]
  No. of implants/pregnancy: 10.2
  No. of males cohabited: 5
  No. of males fertile: 5
  No. of males mated: 5
  Resorbing implants: 56%

## NS(=O)(=O)OCCCOS(N)(=O)=O
Rattus norvegicus [9]
  No. of implants/pregnancy: 6.7
  No. of males cohabited: 5
  No. of males mated: 5
  Resorbing implants: 94.4%
Rattus norvegicus [10]
  No. of implants/pregnancy: 9.3
  No. of males cohabited: 5
  No. of males fertile: 4
  No. of males mated: 5
  Resorbing implants: 73.6%

## CCCC(C)(COS(N)(=O)=O)COS(N)(=O)=O
Rattus norvegicus [11]
  No. of implants/pregnancy: 15.5
  No. of males cohabited: 4
  No. of males fertile: 4
  No. of males mated: 4
  Resorbing implants: 12.5%

## NS(=O)(=O)OCCCCCCCCCCOS(N)(=O)=O
Rattus norvegicus [12]
  No. of implants/pregnancy: 12.5
  No. of males cohabited: 5
  No. of males fertile: 4
  No. of males mated: 5
  Resorbing implants: 17.3%
